Experiments:
[1] = target: T1, human ASBT (Homo sapiens, UniProt Q12908); assay: Quantitative uptake of 3-NBD-BA in carrier-expressing HEK293 cells (fluorescence reader); type: cell-based; parameters: stably transfected with the full open reading frames of human NTCP, ASBT, SOAT, OATP1B1, and OATP1B3; expressed in transfected cells; conditions: ASBT-HEK293, 25 μM, 37 °C, +Na+ vs -Na+
T1 sequence (Q12908 1-348): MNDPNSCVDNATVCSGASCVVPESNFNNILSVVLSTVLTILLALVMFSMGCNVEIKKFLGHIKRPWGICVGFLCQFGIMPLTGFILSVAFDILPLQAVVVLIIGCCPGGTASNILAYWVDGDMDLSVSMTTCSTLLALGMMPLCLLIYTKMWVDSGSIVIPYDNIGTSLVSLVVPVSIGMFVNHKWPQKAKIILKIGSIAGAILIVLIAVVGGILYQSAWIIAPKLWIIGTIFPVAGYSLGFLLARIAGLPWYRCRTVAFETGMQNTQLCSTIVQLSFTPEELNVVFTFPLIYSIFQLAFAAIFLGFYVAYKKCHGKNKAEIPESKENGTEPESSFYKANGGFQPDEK
Procedure: For quantification of the transport activity of the synthesized NBD-BA, all cell lines were seeded on 96 well plates and transport experiments were performed under the same control conditions (-Na^+ control for the SLC10 carriers and nontransfected HEK293 cells for the OATP carriers) as before (Figure ). For each NBD-BA, a substrate concentration of 25 μM was used, and the uptake phase was terminated after 10 min of incubation at 37 °C. […] The transport ratios ranged from 3-fold to 39-fold. In direct comparison, 3α-NBD-TCA (14d) and 3α-NBD-GCA (16d) were transported better than their 3β-analogs 3β-NBD-TCA (14a) and 3β-NBD-GCA (16a), respectively, clearly pointing to a preference for the α-position over the β-position of the 3-NBD-label. In direct comparison between the taurine- or glycine-conjugation of the respective NBD-BA, there was a clear preference for 3α-NBD-GCA (16d) over 3α-NBD-TCA (14d), at least for NTCP and mAsbt, pointing to a favorable substrate recognition for glycine-conjugated NBD-BA.
5 Quantitative uptake experiments with the 3-NBD-BA in HEK293 cells stably expressing the human carriers NTCP, ASBT, SOAT, OATP1B1, and OATP1B3, or the mouse carriers mNtcp and mAsbt. For the SLC10 carriers, all transport experiments were performed in the presence (filled bars) and the absence (hatched bars) of sodium. For the OATP carriers, uptake into carrier-expressing cells (filled bars) was compared to uptake into non-carrier-expressing HEK293 cells (hatched bars). All cell lines were incubated at 37 °C for 10 min with the indicated 3-NBD-BA at 25 μM. Then, cells were washed with PBS and subjected to fluorescence detection. The following fluorescent BA were analyzed: 3α-NBD-TCA (14d), 3β-NBD-TCA (14a), 3α-NBD-GCA (16d), 3β-NBD-GCA (16a), 3β-NBD-TCDCA (14b), 3β-NBD-CDCA (6b), 3β-NBD-DCA (6c), 3α-NBD-CA (6d), and 3β-NBD-CA (6a). Data represent means ± SD of triplicate determinations of representative experiments. […] RFU, relative fluorescence units. TEXT PRINTED IN THE PICTURE: 3α-NBD-TCA (14d): NTCP: 9 X; mNtcp: 30 X; ASBT: 2 X; mAsbt: 14 X | 3ß-NBD-TCA (14a): NTCP: 12 X; mNtcp: 20 X; mAsbt: 18 X | 3α-NBD-GCA (16d): NTCP: 27 X; mNtcp: 26 X; ASBT: 3 X; mAsbt: 39 X | 3ß-NBD-GCA (16a): NTCP: 15 X; mNtcp: 14 X; mAsbt: 5 X | 3ß-NBD-TCDCA (14b): NTCP: 5 X; mNtcp: 3 X; mAsbt: 4 X | 3ß-NBD-CDCA (6b): mNtcp: < 2 X; ASBT: < 2 X; mAsbt: < 2 X; OATP1B1: < 2 X; OATP1B3: < 2 X | 3ß-NBD-DCA (6c): mNtcp: < 2 X; ASBT: < 2 X; mAsbt: < 2 X | 3α-NBD-CA (6d): mNtcp: 2 X; mAsbt: 4 X | 3ß-NBD-CA (6a): NTCP: 2 X; mNtcp: 2 X; mAsbt: 2 X DOUBTS OF THE COPYIST ABOUT THIS PICTURE: The picture prints no panel letters, so the chart titles (NTCP, mNtcp, ASBT, mAsbt, OATP1B1, OATP1B3) are written in front of the values as the target. / Substance labels: the sign after '3' is printed like 'ß' and may be meant as 'β'. / The 'ns' marks and significance asterisks were left out as statistics. The SOAT chart prints only 'ns'.

[2] = logP(o/w), octanol/water partition; conditions: 1:1 mixture of water and 1-octanol, fluorescence detection or liquid scintillation; for logP: 1-octanol/water, LogP(o/w)
Procedure: 9 Membrane permeability of the 3-NBD-BA and logP(o/w) values. […] The lipophilic and hydrophilic phases were separated by centrifugation and both phases were analyzed by fluorescence detection or liquid scintillation, respectively.
All NBD-BA were diluted to 1 pM in STB, and […] and emission spectra were measured from 300 to 650 nm (Spark Multimode Microplate, Tecan, Männedorf, Switzerland). […] The [^3H]-CA was generously provided by Prof. Dr. Alan Hofmann, University of California (San Diego, United States).

[3] = Excitation-emission spectra of the 3-NBD-BA; type: physicochemical; conditions: NaCl-transport buffer, 1 pM compound concentration
Procedure: After the synthesis of this set of unconjugated as well as T- and G-conjugated 3β- and 3α-NBD-BA derivatives, namely 3β-NBD-CA (6a), 3β-NBD-CDCA (6b), 3β-NBD-DCA (6c), 3α-NBD-CA (6d), 3β-NBD-TCA (14a), 3β-NBD-TCDCA (14b), 3α-NBD-TCA (14d), 3β-NBD-GCA (16a), and 3α-NBD-GCA (16d) comprehensive transport studies were conducted with all fluorescent BA listed in Figure . Prior to the transport studies, the excitation and emission spectra of all fluorescent BA derivatives were determined to obtain the optimal emission and excitation wavelengths for subsequent fluorescent measurements at the fluorescence microscope and the fluorescent reader (Figure ). The excitation maxima (ExPeak) were at 468–470 nm and the emission maxima (EmPeak) at 538–540 nm for all fluorescent NBD-BA.
2 Excitation–emission-spectra of the 3-NBD-BA measured in NaCl-transport buffer at 1 pM compound concentration. The excitation (dotted line, ExPeak) and emission (solid line, EmPeak) peak wavelengths (in nm) are indicated for each compound. RFU, relative fluorescence units. […]

| Molecule | Specific transport ratio ASBT (25µM/10 min uptake) [1] | logP [2] | Emission peak wavelength (EmPeak) [3] [nm] | Excitation peak wavelength (ExPeak) [3] [nm] | LogP(o/w) [2] |
| --- | --- | --- | --- | --- | --- |
| C[C@H](CCC(=O)NCCS(=O)(=O)[O-])[C@H]1CC[C@H]2[C@@H]3[C@H](O)C[C@@H]4C[C@@H](Nc5ccc([N+](=O)[O-])c6nonc56)CC[C@]4(C)[C@H]3C[C@H](O)[C@]12C.[Na+] [14a] | not transported and ns | 0.14 | 538 | 468 | – |
| 12α-Hydroxy-3β-[(7-nitro-2,1,3-benzoxadiazol-4-yl)amino]-5β-cholan-24-oate [6c] | <2x x-fold | – | 538 | 468 | 2.147 |
| C[C@H](CCC(=O)O)[C@H]1CC[C@H]2[C@@H]3[C@H](O)C[C@@H]4C[C@H](Nc5ccc([N+](=O)[O-])c6nonc56)CC[C@]4(C)[C@H]3C[C@H](O)[C@]12C [6d, 7α,12α-Dihydroxy-3α-[(7-nitro-2,1,3-benzoxadiazol-4-yl)amino]-5β-cholan-24-oate] | ns | 2.8 | 538 | 468 | – |
| C[C@H](CCC(=O)NCC(=O)O)[C@H]1CC[C@H]2[C@@H]3[C@H](O)C[C@@H]4C[C@@H](Nc5ccc([N+](=O)[O-])c6nonc56)CC[C@]4(C)[C@H]3C[C@H](O)[C@]12C [16a] | not transported and ns | -0.01 | 538 | 468 | – |
| C[C@H](CCC(=O)NCC(=O)O)[C@H]1CC[C@H]2[C@@H]3[C@H](O)C[C@@H]4C[C@H](Nc5ccc([N+](=O)[O-])c6nonc56)CC[C@]4(C)[C@H]3C[C@H](O)[C@]12C [16d] | – | 0.462 | 538 | 468 | – |
| C[C@H](CCC(=O)NCCS(=O)(=O)[O-])[C@H]1CC[C@H]2[C@@H]3[C@H](O)C[C@@H]4C[C@H](Nc5ccc([N+](=O)[O-])c6nonc56)CC[C@]4(C)[C@H]3C[C@H](O)[C@]12C.[Na+] [14d] | – | 0.03 | 538 | 468 | 0.027 |
| C[C@H](CCC(=O)O)[C@H]1CC[C@H]2[C@@H]3[C@H](O)C[C@@H]4C[C@@H](Nc5ccc([N+](=O)[O-])c6nonc56)CC[C@]4(C)[C@H]3C[C@H](O)[C@]12C [6a, 7α,12α-Dihydroxy-3β-[(7-nitro-2,1,3-benzoxadiazol-4-yl)amino]-5β-cholan-24-oate] | ns | > 2 | 538 | 468 | – |
| 7α-Hydroxy-3β-[(7-nitro-2,1,3-benzoxadiazol-4-yl)amino]-5β-cholan-24-oate [6b] | <2x x-fold | – | 538 | 468 | – |
